From ChEMBL document CHEMBL3885881, “DrugMatrix”

Species on record: Rattus norvegicus
Assay: DrugMatrix - Regimen: Daily Repeat
Format: toxicity, organism-based, Sprague-Dawley
Parameters: regimen Daily Repeat, gender Male, age 6-8 weeks
Details: in vivo, po, route oral GAVAGE, vehicle 100 % WATER; for ABSOLUTE BASOPHIL / ABSOLUTE EOSINOPHIL / ABSOLUTE LYMPHOCYTE / ABSOLUTE MONOCYTE / ABSOLUTE SEGMENTED NEUTROPHIL / BASOPHIL / EOSINOPHIL / ERYTHROCYTE COUNT / HEMATOCRIT / HEMOGLOBIN / LEUKOCYTE COUNT / LYMPHOCYTE / MEAN CORPUSCULAR HEMOGLOBIN / MEAN CORPUSCULAR HEMOGLOBIN CONCENTRATION / MEAN CORPUSCULAR VOLUME / MONOCYTE / NEUTROPHIL / NUCLEATED RED BLOOD CELLS / PLATELET COUNT: tissue Blood; for ALANINE AMINOTRANSFERASE / ALBUMIN / ALKALINE PHOSPHATASE / ASPARTATE AMINOTRANSFERASE / BLOOD UREA NITROGEN / CARBON DIOXIDE / CHLORIDE / CHOLESTEROL / CREATINE PHOSPHOKINASE / CREATININE / GLUCOSE / LACTATE DEHYDROGENASE / LIPASE / PHOSPHORUS / POTASSIUM / SODIUM / TOTAL BILIRUBIN / TOTAL PROTEIN / URIC ACID: tissue Plasma
[1] = 27 mg/kg, 120 h, dose level Low, time 5 day
[2] = 54 mg/kg, 72 h, dose level High, time 3 day
[3] = 54 mg/kg, 120 h, dose level High, time 5 day

CNNCc1ccc(C(=O)NC(C)C)cc1 [PROCARBAZINE]
ABSOLUTE BASOPHIL [1]: 0 CELLS/uL
ABSOLUTE EOSINOPHIL [1]: 16.67 CELLS/uL
ABSOLUTE LYMPHOCYTE [1]: 6271.33 CELLS/uL
ABSOLUTE MONOCYTE [1]: 33.33 CELLS/uL
ABSOLUTE SEGMENTED NEUTROPHIL [1]: 112 CELLS/uL
BASOPHIL [1]: 0%
EOSINOPHIL [1]: 0.33%
ERYTHROCYTE COUNT [1]: 5.26 x10E6/uL
HEMATOCRIT [1]: 33.2%
HEMOGLOBIN [1]: 13.37 G/DL
LEUKOCYTE COUNT [1]: 6.43 x10E3/uL
LYMPHOCYTE [1]: 97.33%
MEAN CORPUSCULAR HEMOGLOBIN [1]: 25.4 pg
MEAN CORPUSCULAR HEMOGLOBIN CONCENTRATION [1]: 40.27 G/DL
MEAN CORPUSCULAR VOLUME [1]: 63.07 fL
MONOCYTE [1]: 0.67%
NEUTROPHIL [1]: 1.67%
NUCLEATED RED BLOOD CELLS [1]: 0 /100WBC
PLATELET COUNT [1]: 1312.67 x10E3/uL
ALANINE AMINOTRANSFERASE [1]: 59.67 u/L
ALBUMIN [1]: 4.33 G/DL
ALKALINE PHOSPHATASE [1]: 347 u/L
ASPARTATE AMINOTRANSFERASE [1]: 78.67 u/L
BLOOD UREA NITROGEN [1]: 13.67 mg/dL
CARBON DIOXIDE [1]: 33.67 mmol/L
CHLORIDE [1]: 98 MEQ/L
CHOLESTEROL [1]: 69 mg/dL
CREATINE PHOSPHOKINASE [1]: 304.67 u/L
CREATININE [1]: 0.18 mg/dL
GLUCOSE [1]: 140.67 mg/dL
LACTATE DEHYDROGENASE [1]: 152 u/L
LIPASE [1]: 15.33 u/L
PHOSPHORUS [1]: 9.77 mg/dL
POTASSIUM [1]: 5.23 MEQ/L
SODIUM [1]: 144.95 MEQ/L
TOTAL BILIRUBIN [1]: 0.13 mg/dL
TOTAL PROTEIN [1]: 6.07 G/DL
URIC ACID [1]: 0.77 mg/dL
ABSOLUTE BASOPHIL [2]: 0 CELLS/uL
ABSOLUTE EOSINOPHIL [2]: 27.33 CELLS/uL
ABSOLUTE LYMPHOCYTE [2]: 4383.67 CELLS/uL
ABSOLUTE MONOCYTE [2]: 36 CELLS/uL
ABSOLUTE SEGMENTED NEUTROPHIL [2]: 119.67 CELLS/uL
BASOPHIL [2]: 0%
EOSINOPHIL [2]: 0.67%
ERYTHROCYTE COUNT [2]: 5.22 x10E6/uL
HEMATOCRIT [2]: 33.2%
HEMOGLOBIN [2]: 13 G/DL
LEUKOCYTE COUNT [2]: 4.57 x10E3/uL
LYMPHOCYTE [2]: 96%
MEAN CORPUSCULAR HEMOGLOBIN [2]: 24.93 pg
MEAN CORPUSCULAR HEMOGLOBIN CONCENTRATION [2]: 39.17 G/DL
MEAN CORPUSCULAR VOLUME [2]: 63.7 fL
MONOCYTE [2]: 0.67%
NEUTROPHIL [2]: 2.67%
NUCLEATED RED BLOOD CELLS [2]: 0 /100WBC
PLATELET COUNT [2]: 1130.67 x10E3/uL
ALANINE AMINOTRANSFERASE [2]: 49.67 u/L
ALBUMIN [2]: 4.13 G/DL
ALKALINE PHOSPHATASE [2]: 355.67 u/L
ASPARTATE AMINOTRANSFERASE [2]: 81.67 u/L
BLOOD UREA NITROGEN [2]: 13 mg/dL
CARBON DIOXIDE [2]: 33.67 mmol/L
CHLORIDE [2]: 100 MEQ/L
CHOLESTEROL [2]: 90 mg/dL
CREATINE PHOSPHOKINASE [2]: 291.67 u/L
CREATININE [2]: 0.1 mg/dL
GLUCOSE [2]: 146.67 mg/dL
LACTATE DEHYDROGENASE [2]: 99 u/L
LIPASE [2]: 9 u/L
PHOSPHORUS [2]: 9.63 mg/dL
POTASSIUM [2]: 5.66 MEQ/L
SODIUM [2]: 145.5 MEQ/L
TOTAL BILIRUBIN [2]: 0.1 mg/dL
TOTAL PROTEIN [2]: 6 G/DL
URIC ACID [2]: 0.43 mg/dL
ABSOLUTE BASOPHIL [3]: 0 CELLS/uL
ABSOLUTE EOSINOPHIL [3]: 0 CELLS/uL
ABSOLUTE LYMPHOCYTE [3]: 3873.67 CELLS/uL
ABSOLUTE MONOCYTE [3]: 49.33 CELLS/uL
ABSOLUTE SEGMENTED NEUTROPHIL [3]: 210.33 CELLS/uL
BASOPHIL [3]: 0%
EOSINOPHIL [3]: 0%
ERYTHROCYTE COUNT [3]: 5.43 x10E6/uL
HEMATOCRIT [3]: 33.9%
HEMOGLOBIN [3]: 13.27 G/DL
LEUKOCYTE COUNT [3]: 4.13 x10E3/uL
LYMPHOCYTE [3]: 93.33%
MEAN CORPUSCULAR HEMOGLOBIN [3]: 24.43 pg
MEAN CORPUSCULAR HEMOGLOBIN CONCENTRATION [3]: 39.13 G/DL
MEAN CORPUSCULAR VOLUME [3]: 62.37 fL
MONOCYTE [3]: 1%
NEUTROPHIL [3]: 5.67%
NUCLEATED RED BLOOD CELLS [3]: 0 /100WBC
PLATELET COUNT [3]: 1552.67 x10E3/uL
ALANINE AMINOTRANSFERASE [3]: 57.33 u/L
ALBUMIN [3]: 4.33 G/DL
ALKALINE PHOSPHATASE [3]: 297.33 u/L
ASPARTATE AMINOTRANSFERASE [3]: 75.67 u/L
BLOOD UREA NITROGEN [3]: 15.33 mg/dL
CARBON DIOXIDE [3]: 34 mmol/L
CHLORIDE [3]: 97.67 MEQ/L
CHOLESTEROL [3]: 81 mg/dL
CREATINE PHOSPHOKINASE [3]: 273.67 u/L
CREATININE [3]: 0.13 mg/dL
GLUCOSE [3]: 134.67 mg/dL
LACTATE DEHYDROGENASE [3]: 135.33 u/L
LIPASE [3]: 10 u/L
PHOSPHORUS [3]: 9.93 mg/dL
POTASSIUM [3]: 6 MEQ/L
SODIUM [3]: 143.97 MEQ/L
TOTAL BILIRUBIN [3]: 0.17 mg/dL
TOTAL PROTEIN [3]: 6.13 G/DL
URIC ACID [3]: 0.97 mg/dL
